Consider 4 molecules from patent publication US20210338650A1, “CXCL10 Inhibitors” (LAPKO INC, dba AFECTA PHARMACEUTICALS, priority 2020, published 2021).

One experiment deals with CXCL10. The experiment in a line: CXCL10 levels in retina tissue of STZ diabetic rats, topical eye drops. The settings on record: eye drops 1-5%, 20 μL three times per day, 30 days, retina homogenate ELISA, vs control eye. The format is in vivo. The source says:
CXCL10 expression is associated with age related and diabetes induced retinopathy. A hallmark of these retinopathies is retinal vascular leakage (i.e. increased retinal vascular permeability) thought to induced by CXCL10. To test the in vivo effect of the compounds on treatment of retinopathies associated with increased CXCL10 levels, diabetes was induced in rats by treatment with Streptozotocin (STZ) according established methods (Akbarzadeh et al, J Clin Biochem. 2007 September; 22(2): 60-64) Testing began once the diabetes had been established in the animals. Compounds were formulated into a topically applied eye drop solution containing 1-5% of compounds 91 and 108 along with ethylene glycol, sodium lauryl sulfate, hyaluronic acid, and sterile water at pH 7.0. […] CXCL10 expression was measured in retina tissue homogenate and retinal vascular permeability was assayed using the measurement of leakage of Evans Blue dye from retinal vessels, a well-established method (Invest Ophthalmol Vis Sci 2001 March; 42: 789-794).
On the technique in general: In an ELISA, binding on a coated surface is turned into a signal by an enzyme label.

The test system of experiment [1] is human subjects suffering from dermatitis. The experiment in a line: Clinical treatment of dermatitis/eczema with topical cream, Investigator's Global Assessment (IGA). The format is in vivo. Particulars: 7% topical cream twice per day, 3-4 weeks, vs area treated with cream base alone. The source says: To test the effect of the compounds on treatment of human dermatologic disorders associated with increased CXCL10 production by keratinocytes, Compound 97 and Compound 98 were formulated with stearic acid, lanolin (anhydrous), mineral oil and triethanolamine into a topically applied cream at a concentration of 7%. The compounds in the cream base were applied topically twice per day to human subjects suffering from dermatitis in an area of the skin with active skin lesions for 3-4 weeks. The control was the topical cream base composition without the active compounds. Outcome was measured by an experienced clinical observer as assessed by visible reduction or disappearance of the lesions as assessed in the treated area vs the control area treated only with the cream base alone using Investigator's Global Assessment (IGA) scale.

SMILES strings stand for the structures.

With `COc1ccc2[nH]c([S+]([O-])Cc3ncc(C)c(OC)c3C)nc2c1` (stereo not shown) [Compound 91], the “amount of CXCL10 produced by the retina” value in the experiment on CXCL10 is “significant reduction”. For the molecule `Cc1c(OCC(F)(F)F)ccnc1C[S+]([O-])c1nc2ccccc2[nH]1` (stereo not shown) [Compound 97], in experiment [1], the “dermatitis/eczema lesions, Investigator's Global Assessment (IGA)” value is recorded as “pronounced effect on reducing the dermatitis/eczema”.

Regarding `COCCCOc1ccnc(C[S+]([O-])c2nc3ccccc3[nH]2)c1C` (stereo not shown) [Compound 98], the “dermatitis/eczema lesions, Investigator's Global Assessment (IGA)” value in experiment [1] was “pronounced effect on reducing the dermatitis/eczema”.

Take `COc1ccnc(C[S+]([O-])c2nc3cc(OC(F)F)ccc3[nH]2)c1OC` (stereo not shown) [Compound 108]: in the experiment with CXCL10, the “amount of CXCL10 produced by the retina” value is reported as “significant reduction”.
